# Measurements taken from PMC3685217, “Activation of IP3 receptors requires an endogenous 1-8-14 calmodulin-binding motif” (Biochemical Journal, 2012).
# Values joined by “and” are separate entries in the source; they are usually repeats but may differ in a detail not shown here. Identical values can stand only once.
# Legend:
# rat IP3R1 [1] = molecular target: T1, rat IP3R1 (Rattus norvegicus, UniProt P29994); experiment: IP3-evoked Ca2+ release from the intracellular stores of permeabilized DT40-IP3R1 cells; type: cell-based
# T1 construct: expressed in transfected cells; host or cells: DT40 cells (chicken B cells, all endogenous IP3R genes disrupted) stably expressing rat IP3R1
# Protocol: The free Ca^2+ concentration of the intracellular stores of permeabilized cells was measured using a low-affinity Ca^2+ indicator trapped within the endoplasmic reticulum as reported previously. Briefly, DT40 cells (4×10^7 cells/ml) were suspended in HBS (Hepes-buffered saline: 135 mM NaCl, 5.9 mM KCl, 11.6 mM Hepes, 1.5 mM CaCl2, 11.5 mM glucose and 1.2 mM MgCl2, pH 7.3) containing 1 mg/ml BSA, 0.4 mg/ml Pluronic F127 and 20 μM mag-fluo-4/AM (Invitrogen). After 1 h at 20°C in the dark with gentle shaking, cells were centrifuged at 650 g for 2 min and resuspended to 10^7 cells/ml in Ca^2+-free CLM (cytosol-like medium) (20 mM NaCl, 140 mM KCl, 1 mM EGTA, 20 mM Pipes and 2 mM MgCl2, pH 7.0) containing 20 μg/ml saponin. After incubation at 37°C with gentle shaking for 4 min, permeabilized cells were centrifuged at 650 g for 2 min and resuspended in Mg^2+-free CLM, supplemented with CaCl2 to give a final free Ca^2+ concentration of 220 nM. The free Ca^2+ concentration of CLM was calculated using the MaxChelator program (http://maxchelator.stanford.edu) and then measured using fluo-3 or fura-2. Cells were then washed, resuspended in Mg^2+-free CLM containing 10 μM FCCP (carbonyl cyanide p-trifluoromethoxyphenylhydrazone) to inhibit mitochondria, and distributed into a 96-well plate (10^6 cells in 50 μl of CLM/well). After centrifugation, fluorescence from the luminal indicator was recorded using a FlexStation II platereader (Molecular Devices) equipped to allow automated additions. In all experiments, the intracellular stores were allowed to load to steady-state with Ca^2+ after addition of MgATP. IP3 was then added with thapsigargin (1 μM, to inhibit Ca^2+ reuptake). The Ca^2+ release evoked by IP3 is expressed as a fraction of the ATP-dependent Ca^2+ uptake.
# full-length IP3R1 = molecular target: T2, full-length IP3R1 (Rattus norvegicus, UniProt P29994); experiment: [3H]IP3 binding to membranes from rat cerebellum; conditions: 3 mM peptide, [3H]IP3 1.5 nM
# T2 construct: membranes from rat cerebellum (full-length IP3R, FL); from tissue; host or cells: rat cerebellum membranes
# Protocol: (§1) Equilibrium-competition binding assays were performed at 4°C for 5 min in CLM (500 μl) with a free Ca^2+ concentration of 220 nM and containing [^3H]IP3 (0.75–1.5 nM), bacterial lysate (10 μg of protein for IBC and 100 μg of protein for NT) or cerebellar membranes (50 μg of protein) and competing ligands. Non-specific binding was defined by addition of 10 μM IP3. Bound and free [^3H]IP3 were separated by centrifugation at 20000 g for 5 min, after addition of poly(ethylene glycol) (15% final concentration) and γ-globulin (0.75 mg) for soluble proteins. Results were analysed by fitting to a Hill equation (using GraphPad Prism) from which the IC50 (half-maximal inhibitory concentration) and thereby the Kd (equilibrium dissociation constant) were calculated.
# Figure 4 1-8-14 peptide directly stimulates IP3 binding to the NT of IP3R (A) Specific equilibrium binding of [^3H]IP3 (1.5 nM) to membranes from rat cerebellum (full-length IP3R, FL) or to isolated NT or IBC, alone or in the presence of 3 mM of the indicated peptide. *P<0.05 and **P<0.01 relative to control; comparisons were performed on the raw data. (B) Concentration-dependent effects of 1-8-14 peptide on specific [^3H]IP3 binding to NT in CLM with 220 nM free Ca^2+ concentration, plotted as the increase in specific [^3H]IP3 binding as a percentage of that evoked by the maximal concentration of peptide. […]
# [2] = molecular target: T3, IBC (residues 224–604) of rat IP3R1 (Rattus norvegicus, UniProt P29994, DEL318-332); experiment: [3H]IP3 equilibrium-competition binding to IBC
# T3 construct: IBC (residues 224–604) of rat IP3R1 were amplified by PCR; His6 (N, cleaved yes); made in house; host or cells: Escherichia coli BL21(DE3)
# Excerpt: (§2) The NT (residues 1–604) and IBC (residues 224–604) of rat IP3R1 were amplified by PCR from the full-length receptor clone lacking the SI splice region (GenBank® accession number GQ233032.1) as described previously. The fragments were ligated into pTrcHis A (Invitrogen) to allow expression of N-terminally His6-tagged proteins. Mutagenesis of the 1-8-14 motif within the NT used the QuikChange® II XL site-directed mutagenesis kit (Stratagene) for single mutants (F53E, L60E, Y66E and K52E) and the QuikChange® multi-site-directed mutagenesis kit for the double mutant (F53E and Y66E). The primers used are listed in Supplementary Table S2 (at http://www.BiochemJ.org/bj/449/bj4490039add.htm). The same primers and conditions were used for mutagenesis of full-length IP3R using IP3R1 in the pENTR 1A vector. Full-length constructs were subcloned into pcDNA3.2/V5-DEST for expression in DT40 cells. The complete sequence of every mutant construct was verified by sequencing.
# (§3) The pTrcHis constructs were used for expression of N-terminally His6-tagged proteins in Escherichia coli strain BL21(DE3) cells. Before use for [^3H]IP3 binding, proteins were cleaved from the His6 tags using biotinylated thrombin (Novagen) at the engineered thrombin-cleavage site. Complete cleavage was verified by Western blotting using an anti-His6 antibody. The proteins were used for [^3H]IP3 binding without further purification.
# as §1
# [3] = molecular target: T4, NT (residues 1–604) of rat IP3R1 (Rattus norvegicus, UniProt P29994, DEL318-332); experiment: [3H]IP3 equilibrium-competition binding to NT
# T4 construct: The NT (residues 1–604) and IBC (residues 224–604) of rat IP3R1; His6 (N, cleaved yes); made in house; host or cells: Escherichia coli BL21(DE3)
# Excerpt: as §2, §3, §1
# rat IP3R1 [4] = molecular target: T1, rat IP3R1; experiment: Patch-clamp recording from patches excised from the outer nuclear envelope of DT40 cells; type: biochemical; conditions: IP3 10 μM
# Protocol: Currents were recorded from patches excised from the outer nuclear envelope of DT40 cells expressing recombinant rat IP3R1 using symmetrical caesium methanesulfonate (140 mM) as the charge-carrier. The composition of recording solutions and methods of analysis were otherwise as described previously.
# [5] = molecular target: T5, NT of rat IP3R1 with F53E mutation (Rattus norvegicus, UniProt P29994, DEL318-332/F53E); experiment: [3H]IP3 equilibrium-competition binding to NT F53E; conditions: fragment NT F53E
# T5 construct: The NT (residues 1–604) and IBC (residues 224–604) of rat IP3R1; His6 (N, cleaved yes); made in house; host or cells: Escherichia coli BL21(DE3)
# Excerpt: as §2, §3, §1
# [6] = molecular target: T6, NT of rat IP3R1 with L60E mutation (Rattus norvegicus, UniProt P29994, DEL318-332/L60E); experiment: [3H]IP3 equilibrium-competition binding to NT L60E; conditions: fragment NT L60E
# T6 construct: The NT (residues 1–604) and IBC (residues 224–604) of rat IP3R1; His6 (N, cleaved yes); made in house; host or cells: Escherichia coli BL21(DE3)
# Excerpt: as §2, §3, §1
# [7] = molecular target: T7, NT of rat IP3R1 with Y66E mutation (Rattus norvegicus, UniProt P29994, DEL318-332/Y66E); experiment: [3H]IP3 equilibrium-competition binding to NT Y66E; conditions: fragment NT Y66E
# T7 construct: The NT (residues 1–604) and IBC (residues 224–604) of rat IP3R1; His6 (N, cleaved yes); made in house; host or cells: Escherichia coli BL21(DE3)
# Excerpt: as §2, §3, §1
# T3 sequence (P29994 224-589 isoform P29994-2 limits assumed, stated change not applied): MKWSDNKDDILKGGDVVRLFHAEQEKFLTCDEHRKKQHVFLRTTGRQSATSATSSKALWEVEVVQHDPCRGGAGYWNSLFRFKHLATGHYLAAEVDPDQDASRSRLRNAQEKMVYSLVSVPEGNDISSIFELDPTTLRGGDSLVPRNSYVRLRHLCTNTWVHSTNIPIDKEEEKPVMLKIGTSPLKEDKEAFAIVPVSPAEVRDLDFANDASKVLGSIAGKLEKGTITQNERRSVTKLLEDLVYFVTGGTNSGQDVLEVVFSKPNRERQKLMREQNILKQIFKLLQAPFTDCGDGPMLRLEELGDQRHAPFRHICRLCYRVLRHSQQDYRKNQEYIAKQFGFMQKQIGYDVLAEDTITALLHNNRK
# T4 sequence (P29994 1-589 isoform P29994-2 limits assumed, stated change not applied): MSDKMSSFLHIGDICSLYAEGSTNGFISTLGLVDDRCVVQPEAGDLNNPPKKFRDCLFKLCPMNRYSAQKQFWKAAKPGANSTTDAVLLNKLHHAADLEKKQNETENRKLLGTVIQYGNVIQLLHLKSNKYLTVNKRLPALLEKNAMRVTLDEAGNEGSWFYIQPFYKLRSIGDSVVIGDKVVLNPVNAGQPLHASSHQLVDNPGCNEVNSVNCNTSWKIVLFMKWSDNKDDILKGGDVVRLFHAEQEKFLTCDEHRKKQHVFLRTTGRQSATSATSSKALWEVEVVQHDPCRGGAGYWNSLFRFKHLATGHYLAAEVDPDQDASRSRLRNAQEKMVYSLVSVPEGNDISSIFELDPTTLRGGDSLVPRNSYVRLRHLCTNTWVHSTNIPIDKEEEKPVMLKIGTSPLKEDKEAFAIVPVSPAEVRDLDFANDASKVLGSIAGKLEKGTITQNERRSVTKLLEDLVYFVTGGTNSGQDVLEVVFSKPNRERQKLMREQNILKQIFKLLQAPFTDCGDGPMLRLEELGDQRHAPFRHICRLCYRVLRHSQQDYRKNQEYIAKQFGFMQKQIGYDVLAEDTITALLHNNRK
# T5 sequence (P29994 1-589 isoform P29994-2 F53E limits assumed): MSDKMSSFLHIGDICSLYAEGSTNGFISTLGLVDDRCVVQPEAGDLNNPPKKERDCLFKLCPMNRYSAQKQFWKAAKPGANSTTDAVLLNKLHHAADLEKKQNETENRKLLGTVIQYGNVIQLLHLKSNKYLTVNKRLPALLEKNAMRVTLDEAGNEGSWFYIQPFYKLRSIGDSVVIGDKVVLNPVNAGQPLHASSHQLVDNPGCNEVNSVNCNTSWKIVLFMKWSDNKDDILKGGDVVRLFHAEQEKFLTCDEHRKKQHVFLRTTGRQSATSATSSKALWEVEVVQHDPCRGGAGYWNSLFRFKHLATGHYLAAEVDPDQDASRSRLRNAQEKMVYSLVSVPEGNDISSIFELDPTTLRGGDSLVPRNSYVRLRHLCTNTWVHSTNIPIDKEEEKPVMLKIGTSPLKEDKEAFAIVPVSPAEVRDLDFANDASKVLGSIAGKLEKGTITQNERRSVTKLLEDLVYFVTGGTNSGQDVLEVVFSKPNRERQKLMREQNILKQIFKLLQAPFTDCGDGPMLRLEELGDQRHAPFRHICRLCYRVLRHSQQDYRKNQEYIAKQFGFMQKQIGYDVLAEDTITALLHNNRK
# T1 sequence (P29994 1-2735 isoform P29994-2): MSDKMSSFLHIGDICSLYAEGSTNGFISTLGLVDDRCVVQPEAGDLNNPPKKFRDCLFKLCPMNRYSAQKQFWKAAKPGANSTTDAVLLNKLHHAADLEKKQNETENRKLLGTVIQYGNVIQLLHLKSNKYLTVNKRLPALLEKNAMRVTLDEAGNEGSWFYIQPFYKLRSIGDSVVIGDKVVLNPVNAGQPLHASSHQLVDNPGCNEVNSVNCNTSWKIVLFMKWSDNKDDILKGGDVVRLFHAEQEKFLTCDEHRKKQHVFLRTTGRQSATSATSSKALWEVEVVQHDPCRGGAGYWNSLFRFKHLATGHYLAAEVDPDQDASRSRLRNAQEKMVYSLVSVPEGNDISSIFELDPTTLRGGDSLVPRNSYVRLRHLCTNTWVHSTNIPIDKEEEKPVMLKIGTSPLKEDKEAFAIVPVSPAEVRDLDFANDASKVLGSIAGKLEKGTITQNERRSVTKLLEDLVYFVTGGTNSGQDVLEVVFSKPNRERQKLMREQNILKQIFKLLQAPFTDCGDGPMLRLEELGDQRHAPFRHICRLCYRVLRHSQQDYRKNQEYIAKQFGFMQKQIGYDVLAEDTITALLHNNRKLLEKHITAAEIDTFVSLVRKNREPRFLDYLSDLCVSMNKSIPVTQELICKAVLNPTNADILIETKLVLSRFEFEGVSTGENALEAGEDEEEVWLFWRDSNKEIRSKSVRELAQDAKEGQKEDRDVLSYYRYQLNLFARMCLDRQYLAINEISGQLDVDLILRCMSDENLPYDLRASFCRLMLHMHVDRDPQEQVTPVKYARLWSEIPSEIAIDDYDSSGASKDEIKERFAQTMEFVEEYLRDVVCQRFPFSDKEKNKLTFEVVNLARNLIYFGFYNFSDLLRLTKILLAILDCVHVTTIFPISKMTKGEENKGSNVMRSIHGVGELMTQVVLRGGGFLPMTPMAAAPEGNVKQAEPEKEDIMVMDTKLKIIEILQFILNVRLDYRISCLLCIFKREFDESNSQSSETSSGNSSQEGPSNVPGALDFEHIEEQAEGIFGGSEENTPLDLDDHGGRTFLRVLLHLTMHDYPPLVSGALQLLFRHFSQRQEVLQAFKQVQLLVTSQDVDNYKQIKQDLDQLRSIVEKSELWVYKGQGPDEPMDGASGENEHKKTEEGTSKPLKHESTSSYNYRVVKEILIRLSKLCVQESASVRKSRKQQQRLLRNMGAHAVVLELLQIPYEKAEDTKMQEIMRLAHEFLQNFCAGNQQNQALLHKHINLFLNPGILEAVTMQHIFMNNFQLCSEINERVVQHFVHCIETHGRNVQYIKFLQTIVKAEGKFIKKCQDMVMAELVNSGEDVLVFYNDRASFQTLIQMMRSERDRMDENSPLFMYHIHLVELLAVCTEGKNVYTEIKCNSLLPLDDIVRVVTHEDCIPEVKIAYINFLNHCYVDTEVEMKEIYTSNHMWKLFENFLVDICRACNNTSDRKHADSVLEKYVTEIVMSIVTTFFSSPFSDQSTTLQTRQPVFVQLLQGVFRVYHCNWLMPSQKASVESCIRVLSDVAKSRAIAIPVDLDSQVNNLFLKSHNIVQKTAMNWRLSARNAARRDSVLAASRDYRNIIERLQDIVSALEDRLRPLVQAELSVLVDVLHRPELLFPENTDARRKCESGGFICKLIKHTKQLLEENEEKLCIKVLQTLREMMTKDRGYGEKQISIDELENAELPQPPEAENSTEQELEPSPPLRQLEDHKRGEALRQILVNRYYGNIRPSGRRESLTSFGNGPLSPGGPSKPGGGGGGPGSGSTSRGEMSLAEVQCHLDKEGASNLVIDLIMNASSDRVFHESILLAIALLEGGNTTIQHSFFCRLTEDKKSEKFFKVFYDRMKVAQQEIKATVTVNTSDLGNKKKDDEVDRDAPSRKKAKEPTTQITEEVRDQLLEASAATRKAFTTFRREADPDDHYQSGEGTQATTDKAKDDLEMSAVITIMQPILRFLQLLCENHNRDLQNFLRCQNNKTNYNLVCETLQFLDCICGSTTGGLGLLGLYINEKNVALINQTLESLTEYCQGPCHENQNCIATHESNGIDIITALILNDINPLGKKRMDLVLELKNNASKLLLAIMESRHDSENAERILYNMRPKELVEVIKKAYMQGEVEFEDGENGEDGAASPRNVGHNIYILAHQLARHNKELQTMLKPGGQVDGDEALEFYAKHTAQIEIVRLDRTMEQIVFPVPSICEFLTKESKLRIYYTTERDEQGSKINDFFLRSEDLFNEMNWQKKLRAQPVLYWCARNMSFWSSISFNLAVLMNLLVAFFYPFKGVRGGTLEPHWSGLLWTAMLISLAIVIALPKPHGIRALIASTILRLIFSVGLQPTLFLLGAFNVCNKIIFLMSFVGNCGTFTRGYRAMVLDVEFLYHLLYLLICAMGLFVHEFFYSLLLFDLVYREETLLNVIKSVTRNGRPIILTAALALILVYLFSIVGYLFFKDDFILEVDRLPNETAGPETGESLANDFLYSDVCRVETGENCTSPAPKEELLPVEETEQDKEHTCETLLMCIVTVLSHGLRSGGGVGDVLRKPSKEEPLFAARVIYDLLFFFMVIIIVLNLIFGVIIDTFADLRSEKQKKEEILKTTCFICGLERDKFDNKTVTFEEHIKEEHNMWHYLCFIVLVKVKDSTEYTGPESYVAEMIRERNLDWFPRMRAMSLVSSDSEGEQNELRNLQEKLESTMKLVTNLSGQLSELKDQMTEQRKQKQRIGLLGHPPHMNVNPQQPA
# T7 sequence (P29994 1-589 isoform P29994-2 Y66E limits assumed): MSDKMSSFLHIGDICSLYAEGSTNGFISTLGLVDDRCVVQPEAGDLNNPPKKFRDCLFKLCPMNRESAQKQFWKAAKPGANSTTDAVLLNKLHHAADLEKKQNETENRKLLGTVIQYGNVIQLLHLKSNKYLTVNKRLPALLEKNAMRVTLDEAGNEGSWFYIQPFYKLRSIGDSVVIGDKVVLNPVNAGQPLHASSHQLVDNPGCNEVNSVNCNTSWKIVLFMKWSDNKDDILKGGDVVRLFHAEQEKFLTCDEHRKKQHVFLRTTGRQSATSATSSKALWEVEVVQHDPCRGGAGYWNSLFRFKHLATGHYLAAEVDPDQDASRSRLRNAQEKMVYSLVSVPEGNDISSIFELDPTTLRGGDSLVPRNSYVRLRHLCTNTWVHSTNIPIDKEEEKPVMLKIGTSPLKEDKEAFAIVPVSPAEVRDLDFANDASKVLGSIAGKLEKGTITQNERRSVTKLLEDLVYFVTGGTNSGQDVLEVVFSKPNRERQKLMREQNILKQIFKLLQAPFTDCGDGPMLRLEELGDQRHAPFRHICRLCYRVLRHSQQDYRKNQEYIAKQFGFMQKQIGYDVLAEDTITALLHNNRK
substance,measurement,setting,value
"Ac-KKFRDALFKLAPMNRY-NH2 [1-8-14 peptide, Ac-KKFRDALFKLAPMNRY-NH2]",dependence of inhibition on cytosolic free Ca2+ concentration,"rat IP3R1 [1]; 1 mM peptide, maximally effective IP3",enhanced at elevated cytosolic Ca^2+ concentrations
same,reversibility of inhibition of IP3-evoked Ca2+ release,"rat IP3R1 [1]; 3 mM peptide 10–20 min, washed, rechallenged",fully reversible
same,effect on the sensitivity (EC50) to IP3,"rat IP3R1 [1]; 3 mM peptide, pre-incubation 2.5 min",without affecting
same,inhibition at 3000 µM,"rat IP3R1 [1]; 3 mM peptide, similar for all IP3 concentrations, read-out: percentage inhibition of IP3-evoked Ca2+ release",~75%
same,Emax,"rat IP3R1 [1]; maximally effective concentration of the peptide, read-out: reduction of the maximal response to IP3",77 ± 7%
same,effect on Ca2+ uptake,rat IP3R1 [1]; permeabilized DT40-IP3R1 cells,without affecting
same,IC50,"rat IP3R1 [1]; permeabilized DT40-IP3R1 cells pre-incubated 10–20 min with peptide, IP3 10 μM, 220 nM free Ca2+, read-out: IC50 for inhibition of IP3-evoked Ca2+ release",767 µM
same,effect on specific binding of [3H]IP3 to full-length IP3R1,full-length IP3R1,increased
same,effect on IP3 binding to the IBC,"[2]; 3 mM peptide, [3H]IP3 1.5 nM",unaffected
same,EC50,"[3]; CLM with 220 nM free Ca2+, read-out: EC50 for stimulating [3H]IP3 binding to the NT",615 µM
same,decrease in overall channel activity (NPo),"rat IP3R1 [4]; 3 mM peptide, +40 mV",~ 10 fold
same,decrease in the mean channel open time (τo),"rat IP3R1 [4]; 3 mM peptide, +40 mV",50%
same,single-channel conductance (γCs),"rat IP3R1 [4]; peptide-treated IP3Rs (3 mM), n=3, control 214±6 pS",209±6 pS
heparin,"Affinity relative to NT (heparin), Kd^NT/Kd^mutant",[5],2 fold
same,"Kd, ng/ml (heparin)",[5],120 ng/mL
same,"pKd, /g/ml heparin","[5]; mean±S.E.M., n≥3",6.92±0.06 /g/ml
same,"Affinity relative to NT (heparin), Kd^NT/Kd^mutant",[6],1.2 fold
same,"Kd, ng/ml (heparin)",[6],200 ng/mL
same,"pKd, /g/ml heparin","[6]; mean±S.E.M., n≥3",6.70±0.04 /g/ml
same,"Kd, ng/ml (heparin)",[2]; fragment IBC,117 ng/mL
same,"Affinity relative to NT (heparin), Kd^NT/Kd^mutant",[2]; fragment IBC (SD removed),2 fold and 2.0 fold
same,"pKd, /g/ml heparin","[2]; fragment IBC, mean±S.E.M., n≥3",6.93±0.04 /g/ml
same,"Affinity relative to NT (heparin), Kd^NT/Kd^mutant",[3]; fragment NT,1 fold
same,"Kd, ng/ml (heparin)",[3]; fragment NT,239 ng/mL
same,"pKd, /g/ml heparin","[3]; fragment NT, mean±S.E.M., n≥3",6.62±0.06 /g/ml
same,"Affinity relative to NT (heparin), Kd^NT/Kd^mutant",[7],1.4 fold
same,"Kd, ng/ml (heparin)",[7],171 ng/mL
same,"pKd, /g/ml heparin","[7]; mean±S.E.M., n≥3",6.77±0.03 /g/ml
